“And” between values parts separate entries of the source, which are not always exact repeats. Identical values can stand only once. Like-named read-outs stand apart in the source and are kept apart here.
What was measured:
[1] = tested on: Dirofilaria immitis microfilariae; experiment: Dirofilaria immitis microfilariae immobility assay (DiroImager, 72 h)
Method in brief: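 Motility read after 72 h drug exposure with an image-based high-throughput plate imager, 1% DMSO medium serving as negative control. Missouri-isolate microfilariae, roughly 250 per well, freshly purified and cultured in supplemented RPMI 1640.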

rat VAChT = biological target: T1, rat VAChT (Rattus norvegicus, UniProt Q62666); experiment: [3H]Vesamicol competitive radioligand binding, PC12 cells expressing ratVAChT; details: for specific binding in % of total binding (corrected by nonspecific binding NB), mean: rVAChT-PC12, 21°C, 1% DMSO
T1 construct: expressed in transfected cells; host or cells: rat PC12 (PC12 A123.7) cells, stably transfected; shared by Dr. Ali Roghani (Texas Tech University)
T1 sequence (Q62666 1-530): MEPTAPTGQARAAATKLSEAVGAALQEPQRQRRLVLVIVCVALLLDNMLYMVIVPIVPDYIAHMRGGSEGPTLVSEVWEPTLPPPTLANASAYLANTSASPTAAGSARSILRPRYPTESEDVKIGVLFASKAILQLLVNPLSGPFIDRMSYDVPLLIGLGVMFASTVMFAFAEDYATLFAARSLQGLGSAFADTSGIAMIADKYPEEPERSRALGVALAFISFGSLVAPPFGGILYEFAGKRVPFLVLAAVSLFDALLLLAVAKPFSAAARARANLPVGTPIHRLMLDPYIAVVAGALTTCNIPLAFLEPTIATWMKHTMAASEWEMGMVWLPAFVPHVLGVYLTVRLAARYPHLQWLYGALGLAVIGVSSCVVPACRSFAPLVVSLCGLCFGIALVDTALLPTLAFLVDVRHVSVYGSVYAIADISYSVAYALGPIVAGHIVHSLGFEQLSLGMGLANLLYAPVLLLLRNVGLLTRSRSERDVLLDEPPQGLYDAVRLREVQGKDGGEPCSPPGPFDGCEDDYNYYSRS

[2] = tested on: C. elegans unc-17 mutants
Method: Significance was calculated using Fisher’s method (one-sided comparisons; see 'Methods'). […] Worms were incubated on the plates for 60 min.
Locomotor phenotype analyses were done in 24-well plates with 1 mL of MYOB substrate (27.5 g Trizma HCl, 12 g Trizma Base, 230 g bacto tryptone, 10 g NaCl, 0.4 g cholesterol (95%)) seeded with 25 µL of OP50 Escherichia coli on each well. Each compound was added to the MYOB substrate before pouring to achieve the desired final concentrations of 30 µM or 60 µM after diffusion through the media. Synchronized young adult worms are transferred into each well using a platinum wire pick. A Leica MZ75 stereomicroscope was used to visualize the movement of worms on the solid substrate. The specific dominant locomotor phenotype (i.e. ‘Punc’, ‘paralyzed’, ‘coiler’ or ‘wild-type locomotion’) was scored after the touch on the head with a platinum wire over a ~3–5 s of observation. […] Coiled animals were not scored as paralyzed despite sometimes not responding to light touch.

[3] = unc-17 (e245), 15 µM, 60 min, adult worms, average of 3 biological repeats
[4] = unc-17 (e245), 30 µM, 60 min, adult worms, average of 3 biological repeats
[5] = unc-17 (e245), 60 µM, 60 min, adult worms, average of 3 biological repeats
[6] = unc-17 (e245), 15 µM, 60 min, single Bio Rep
[7] = unc-17 (e245), 30 µM, 60 min, single Bio Rep
[8] = unc-17 (e245), 60 µM, 60 min, single Bio Rep
[9] = unc-17 (e327), 15 µM, 60 min, single Bio Rep
[10] = unc-17 (e327), 30 µM, 60 min, single Bio Rep
[11] = unc-17 (e327), 60 µM, 60 min, single Bio Rep
[12] = unc-17 (e795), 15 µM, 60 min, average of 3 biological repeats
[13] = unc-17 (e795), 15 µM, young adult, average of 3 biological repeats
[14] = unc-17 (e795), 30 µM, young adult, average of 3 biological repeats
[15] = unc-17 (e795), 60 µM, young adult, average of 3 biological repeats
[16] = unc-17 (md414), 15 µM, 60 min, adult worms, average of 3 biological repeats
[17] = unc-17 (md414), 30 µM, 60 min, average of 3 biological repeats
[18] = unc-17 (md414), 60 µM, 60 min, average of 3 biological repeats
[19] = unc-17 (md414), 15 µM, 60 min, single Bio Rep
[20] = unc-17 (md414), 30 µM, 60 min, single Bio Rep
[21] = unc-17 (md414), 60 µM, 60 min, single Bio Rep

## O=[N+]([O-])c1ccc(N2CCN(CC3CCCCC3)CC2)cc1 [Nemacol-1]
[1]; 0.016 µM
  % effect (motility), DIROIM MF: 0%
[1]; 0.08 µM
  % effect (motility), DIROIM MF: 0%
[1]; 0.4 µM
  % effect (motility), DIROIM MF: 0%
[1]; 2 µM
  % effect (motility), DIROIM MF: 20%
[1]; 10 µM
  % effect (motility), DIROIM MF: 100%
[1]; 50 µM
  % effect (motility), DIROIM MF: 100%
[1]; Dirofilaria immitis, 72 h, read-out: Dirofilaria immitis filariae EC50
  EC50: 2200 nM
Rat VAChT
  activity ratio, mammalian VAChT Ki to C. elegans in vivo EC50: 0.11
Rat VAChT; Ki, each of two biological replicates
  Ki: 875 nM and 661 nM
Rat VAChT; competitor 1.00E-04 M, experiment 2019-11-21, 2.20E-09 M 3H-vesamicol, 90 min
  specific binding in % of total binding (corrected by nonspecific binding NB), mean: 2.84%
Rat VAChT; competitor 1.00E-05 M, experiment 2019-10-30, 2.92E-09 M 3H-vesamicol, 120 min
  specific binding in % of total binding (corrected by nonspecific binding NB), mean: 34%
Rat VAChT; competitor 1.00E-05 M, experiment 2019-11-21, 2.20E-09 M 3H-vesamicol, 90 min
  specific binding in % of total binding (corrected by nonspecific binding NB), mean: 10%
Rat VAChT; competitor 1.00E-06 M, experiment 2019-10-30, 2.92E-09 M 3H-vesamicol, 120 min
  specific binding in % of total binding (corrected by nonspecific binding NB), mean: 51%
Rat VAChT; competitor 1.00E-06 M, experiment 2019-11-21, 2.20E-09 M 3H-vesamicol, 90 min
  specific binding in % of total binding (corrected by nonspecific binding NB), mean: 52%
Rat VAChT; competitor 1.00E-07 M, experiment 2019-10-30, 2.92E-09 M 3H-vesamicol, 120 min
  specific binding in % of total binding (corrected by nonspecific binding NB), mean: 86%
Rat VAChT; competitor 1.00E-07 M, experiment 2019-11-21, 2.20E-09 M 3H-vesamicol, 90 min
  specific binding in % of total binding (corrected by nonspecific binding NB), mean: 82%
Rat VAChT; competitor 1.00E-08 M, experiment 2019-10-30, 2.92E-09 M 3H-vesamicol, 120 min
  specific binding in % of total binding (corrected by nonspecific binding NB), mean: 94%
Rat VAChT; competitor 1.00E-08 M, experiment 2019-11-21, 2.20E-09 M 3H-vesamicol, 90 min
  specific binding in % of total binding (corrected by nonspecific binding NB), mean: 90%
Rat VAChT; competitor 1.00E-09 M, experiment 2019-10-30, 2.92E-09 M 3H-vesamicol, 120 min
  specific binding in % of total binding (corrected by nonspecific binding NB), mean: 96%
Rat VAChT; competitor 1.00E-09 M, experiment 2019-11-21, 2.20E-09 M 3H-vesamicol, 90 min
  specific binding in % of total binding (corrected by nonspecific binding NB), mean: 88%
Rat VAChT; competitor 1.00E-10 M, experiment 2019-10-30, 2.92E-09 M 3H-vesamicol, 120 min
  specific binding in % of total binding (corrected by nonspecific binding NB), mean: 95%
Rat VAChT; competitor 1.00E-10 M, experiment 2019-11-21, 2.20E-09 M 3H-vesamicol, 90 min
  specific binding in % of total binding (corrected by nonspecific binding NB), mean: 92%
Rat VAChT; competitor 1.00E-11 M, experiment 2019-10-30, 2.92E-09 M 3H-vesamicol, 120 min
  specific binding in % of total binding (corrected by nonspecific binding NB), mean: 94%
Rat VAChT; fold less affinity than vesamicol
  rat VAChT Ki fold difference to vesamicol: 37 fold
Rat VAChT; in vitro mammalian VAChT Ki
  Ki: 770 nM
Rat VAChT; ratVAChT Ki, [3H]Vesamicol displacement, mean
  Ki: 768 nM
[2]; [3]
  Fraction Coiled: 0.83
  Fraction Jerky-Unc: 0.17
  Fraction No Phenotype: 0.00
  Fraction Parayzed: 0.00
[2]; [4]
  Fraction Coiled: 0.78
  Fraction Jerky-Unc: 0.13
  Fraction No Phenotype: 0.00
  Fraction Parayzed: 0.09
[2]; [5]
  Fraction Coiled: 0.80
  Fraction Jerky-Unc: 0.0556
  Fraction No Phenotype: 0.00
  Fraction Parayzed: 0.15
[2]; unc-17 (e245), 15 µM, 60 min
  Fraction Coiled, Averages of 3 biological repeats: 0.78
  Fraction Jerky-Unc, Averages of 3 biological repeats: 0.19
  Fraction No Phenotype, Averages of 3 biological repeats: 0.00
  Fraction Parayzed, Averages of 3 biological repeats: 0.037
[2]; [6]
  C1 (loose coil) worm count: 4 and 2 and 3
  C2 (tight coil) worm count: 11 and 12 and 10
  Fraction Coiled: 0.72 and 0.83 and 0.78
  Fraction Jerky-Unc: 0.1667 and 0.2222
  Fraction No Phenotype: 0.00
  J (jerky-unc) worm count: 3 and 4
  NP (no phene) worm count: 0
[2]; unc-17 (e245), 30 µM, 60 min
  Fraction Coiled, Averages of 3 biological repeats: 0.87
  Fraction Jerky-Unc, Averages of 3 biological repeats: 0.0741
  Fraction No Phenotype, Averages of 3 biological repeats: 0.00
  Fraction Parayzed, Averages of 3 biological repeats: 0.0556
[2]; [7]
  C1 (loose coil) worm count: 2 and 1
  C2 (tight coil) worm count: 14 and 15 and 13
  Fraction Coiled: 0.83 and 0.89
  Fraction No Phenotype: 0.00
  NP (no phene) worm count: 0
[2]; unc-17 (e245), 60 µM, 60 min
  Fraction Coiled, Averages of 3 biological repeats: 0.76
  Fraction Jerky-Unc, Averages of 3 biological repeats: 0.037
  Fraction No Phenotype, Averages of 3 biological repeats: 0.00
  Fraction Parayzed, Averages of 3 biological repeats: 0.20
[2]; [8]
  C1 (loose coil) worm count: 4 and 2
  C2 (tight coil) worm count: 12 and 8 and 11
  Fraction Coiled: 0.83 and 0.89 and 0.56
  Fraction No Phenotype: 0.00
  NP (no phene) worm count: 0
[2]; unc-17 (e327), 15 µM, 60 min
  Fraction Coiled, Averages of 3 biological repeats: 0.77
  Fraction Jerky-Unc, Averages of 3 biological repeats: 0.15
  Fraction No Phenotype, Averages of 3 biological repeats: 0.00
  Fraction Parayzed, Averages of 3 biological repeats: 0.08
[2]; [9]
  C1 (loose coil) worm count: 3 and 4
  C2 (tight coil) worm count: 10 and 12 and 8
  Fraction Coiled: 0.75 and 0.72 and 0.83
  Fraction Jerky-Unc: 0.125 and 0.1667
  Fraction No Phenotype: 0.00
  J (jerky-unc) worm count: 3 and 2
  NP (no phene) worm count: 0
[2]; unc-17 (e327), 30 µM, 60 min
  Fraction Coiled, Averages of 3 biological repeats: 0.66
  Fraction Jerky-Unc, Averages of 3 biological repeats: 0.12
  Fraction No Phenotype, Averages of 3 biological repeats: 0.00
  Fraction Parayzed, Averages of 3 biological repeats: 0.23
[2]; [10]
  C1 (loose coil) worm count: 2 and 4
  C2 (tight coil) worm count: 8 and 9 and 7
  Fraction Coiled: 0.69 and 0.56 and 0.72
  Fraction No Phenotype: 0.00
  NP (no phene) worm count: 0
[2]; unc-17 (e327), 60 µM, 60 min
  Fraction Coiled, Averages of 3 biological repeats: 0.48
  Fraction Jerky-Unc, Averages of 3 biological repeats: 0.037
  Fraction No Phenotype, Averages of 3 biological repeats: 0.00
  Fraction Parayzed, Averages of 3 biological repeats: 0.48
[2]; [11]
  C1 (loose coil) worm count: 4 and 3 and 2
  Fraction No Phenotype: 0.00
  NP (no phene) worm count: 0
  P (paralyzed) worm count: 8 and 6 and 12
[2]; [12]
  Fraction Coiled: 0.81
  Fraction Jerky-Unc: 0.09
  Fraction No Phenotype: 0.00
  Fraction Parayzed: 0.09
[2]; [13]
  Fraction Coiled: 0.74
  Fraction Jerky-Unc: 0.24
  Fraction No Phenotype: 0.00
  Fraction Parayzed: 0.0185
[2]; [14]
  Fraction Coiled: 0.83
  Fraction Jerky-Unc: 0.0556
  Fraction No Phenotype: 0.00
  Fraction Parayzed: 0.11
[2]; [15]
  Fraction Coiled: 0.63
  Fraction Jerky-Unc: 0.0556
  Fraction No Phenotype: 0.00
  Fraction Parayzed: 0.31
[2]; [16]
  Fraction Coiled: 0.19
  Fraction Jerky-Unc: 0.60
  Fraction No Phenotype: 0.21
  Fraction Parayzed: 0.00
[2]; [17]
  Fraction Coiled: 0.44
  Fraction Jerky-Unc: 0.47
  Fraction No Phenotype: 0.037
  Fraction Parayzed: 0.06
[2]; [18]
  Fraction Coiled: 0.59
  Fraction Jerky-Unc: 0.27
  Fraction No Phenotype: 0.00
  Fraction Parayzed: 0.13
[2]; unc-17 (md414), 15 µM, 60 min
  Fraction Coiled, Averages of 3 biological repeats: 0.25
  Fraction Jerky-Unc, Averages of 3 biological repeats: 0.52
  Fraction No Phenotype, Averages of 3 biological repeats: 0.23
  Fraction Parayzed, Averages of 3 biological repeats: 0.00
[2]; [19]
  C1 (loose coil) worm count: 1 and 2
  Fraction Jerky-Unc: 0.35 and 0.6111 and 0.5882
  Fraction Parayzed: 0
  J (jerky-unc) worm count: 11 and 7 and 10
  P (paralyzed) worm count: 0
[2]; unc-17 (md414), 30 µM, 60 min
  Fraction Coiled, Averages of 3 biological repeats: 0.54
  Fraction Jerky-Unc, Averages of 3 biological repeats: 0.44
  Fraction No Phenotype, Averages of 3 biological repeats: 0.00
  Fraction Parayzed, Averages of 3 biological repeats: 0.0185
[2]; [20]
  C1 (loose coil) worm count: 4 and 2 and 3
  C2 (tight coil) worm count: 5 and 8 and 6
  Fraction Coiled: 0.50 and 0.63
  Fraction Jerky-Unc: 0.5 and 0.4444 and 0.375
  Fraction No Phenotype: 0.00
  J (jerky-unc) worm count: 8 and 9 and 6
  NP (no phene) worm count: 0
[2]; unc-17 (md414), 60 µM, 60 min
  Fraction Coiled, Averages of 3 biological repeats: 0.49
  Fraction Jerky-Unc, Averages of 3 biological repeats: 0.28
  Fraction No Phenotype, Averages of 3 biological repeats: 0.00
  Fraction Parayzed, Averages of 3 biological repeats: 0.22
[2]; [21]
  C2 (tight coil) worm count: 6
  Fraction Coiled: 0.56 and 0.59 and 0.33
  Fraction No Phenotype: 0.00
  J (jerky-unc) worm count: 6 and 3
  NP (no phene) worm count: 0
